Source: patent US9763454B2, “Composition comprising a biological control agent and a fungicide” (Bayer CropScience AG, priority 2012, dated 2017)

Assays:
Rhizoctonia solani = test: Rhizoctonia test (cotton)/Drench; format: in vivo; conditions: greenhouse, 30 ml drench per pot, 7 days at 20° C., BioAct 4 × 10^11 cfu/seed, F70 1.2 mg ai/seed
Procedure: (§1) The test is performed under greenhouse conditions.
Perlite was incubated with mycelia of Rhizoctonia solani. Infected perlite was scattered in a 1:1 mix of steamed field soil and sand and was incubated in a dark box in greenhouse for 6 days. After soil incubation, cotton seeds were sown in 6*6 cm pots containing this soil mixture.
Compounds and compound combinations were suspended and diluted with water to the desired concentrations. 30 ml of compound or compound combination preparation were drenched on each pot. Pots were incubated in the greenhouse for 7 days at 20° C.
Assessment consisted of counting of emerged seedlings. 0% means an efficacy which corresponds to that of the untreated control, while an efficacy of 100% means that all seedlings have emerged.

[1] = test system: cotton (variety Vicky) seedlings; test: Hypocotyl growth enhancement (cotton)/Drench; format: in vivo; conditions: 7 days after sowing
Procedure: as §1
Five cotton (variety Vicky) seeds were sown in a 6*6 cm pot containing 1:1 mix of steamed field soil and sand. Compounds and compound combinations were suspended and diluted with water to the desired concentrations. Just after sowing, 30 ml of compound or compound combination preparation were drenched on each pot. The pots (three replications per treatment) were placed in randomized arrangement in the greenhouse and kept at 20° C. for 7 days.
Length of hypocotyls was measured at 7 days after sowing.

Structure (SMILES): O=C(NCCc1ncc(C(F)(F)F)cc1Cl)c1ccccc1C(F)(F)F [F70 fluopyram, fluopyram]
- Efficacy in % found (activity found; emerged seedlings) (Rhizoctonia solani): 0%
- Seedling/hypocotyl length compared in words ([1]; drench): significantly higher than untreated
- Hypocotyl (length, average of 15 seedlings) ([1]; greenhouse, 30 ml drench per pot, 20° C., BioAct 4 × 10^11 cfu/plant, F70 1.2 mg ai/plant, untreated 5.3): 5.9 cm
